Where “and” joins values, the source holds several entries; their conditions need not be identical. Identical values can stand only once. Like-named read-outs stand apart in the source and are kept apart here.
Key:
SARS-CoV-2 Main protease = SARS-CoV-2 Main protease (Severe acute respiratory syndrome coronavirus 2, UniProt P0DTD1); assay: biochemical
SARS-CoV-2 = assay: microbe, parasite or virus in culture; type: cell-based; conditions: for API Value: ratio of 10 μM inhibition % of tested drug to the reference remdesivir
[1] = MTT cell viability / cytotoxicity in Vero E6 cells; parameters: cytotoxicity to Vero E6 cells: dose or concentration left out as unconfirmed; conditions: African green monkey
Vero E6 cells = assay: MTT cell viability / cytotoxicity in Vero E6 cells; parameters: cytotoxicity to Vero E6 cells: dose or concentration left out as unconfirmed; conditions: for IC50: read-out: Cytotoxicity (Vero E6) (IC50), Vero E6 cells, MTT test
SARS-CoV Main protease = conditions: cited from earlier work
[2] = tested on: Main protease of MERS-CoV; conditions: cited from earlier work
[3] = triplicate readings with SE, read-out: IC50 (μM) ± SE
[4] = Severe acute respiratory syndrome coronavirus 2, Vero C1008, 1 μM, infected Vero E6 cells, MOI 0.01, read-out: Anti-SARS-CoV-2 Effect Assay (%) 1 μM
[5] = Severe acute respiratory syndrome coronavirus 2, Vero C1008, 10 μM, infected Vero E6 cells, MOI 0.01, read-out: Anti-SARS-CoV-2 Effect Assay (%) 10 μM
[6] = Cytotoxicity (Vero E6) (IC50, μM), Vero E6 cells, MTT test

| Structure (SMILES) | IC50 (SARS-CoV-2 Main protease; [3]) | inhibition at 1 µM (SARS-CoV-2; [4]) [%] | inhibition at 10 µM (SARS-CoV-2; [5]) [%] | API Value (SARS-CoV-2) | IC50 [1, 6] [µM] | other results |
| --- | --- | --- | --- | --- | --- | --- |
| CC1=NN(c2ccc(Cl)cc2)C(=O)/C1=C\c1ccc(OCc2cn(CC(=O)NCc3ccc(C)cc3)nn2)cc1 [6o, (Z)-2-(4-((4-((1-(4-Chlorophenyl)-3-methyl-5-oxo-1H-pyrazol-4(5H)-ylidene)methyl)phenoxy)methyl)-1H-1,2,3-triazol-1-yl)-N-(4-methylbenzyl)acetamide] | 43.3 ± 2.1 µM | 12.23 ± 0.1 | 54.1 ± 0.61 | 0.56 | 262 ± 20 | – |
| CC1=NN(c2ccc(Cl)cc2)C(=O)/C1=C\c1ccc(OCc2cn(CC(=O)NCc3ccc(F)cc3)nn2)cc1 [6q, (Z)-2-(4-((4-((1-(4-Chlorophenyl)-3-methyl-5-oxo-1H-pyrazol-4(5H)-ylidene)methyl)phenoxy)methyl)-1H-1,2,3-triazol-1-yl)-N-(4-fluorobenzyl)acetamide] | 3.16 µM and 7.55 µM | 12.9 ± 0.03 | 79 | 0.84 | > 20 | IC50 (Vero E6 cells): 35.3 ± 2.7 µM |
| CC(C)CC(NC(=O)OCc1ccccc1)C(=O)NC(CC1CCNC1=O)C(O)S(=O)(=O)O (centres unmarked) [GC-376, reference compound] | – | 78.96 ± 0.67 | 92.9 ± 1.15 | 0.99 | 41.2 ± 1.1 | – |
| CC1=NN(c2ccccc2)C(=O)/C1=C\c1ccc(OCc2cn(CC(=O)Nc3ccc(F)cc3)nn2)cc1 [6k, (Z)-N-(4-Fluorophenyl)-2-(4-((4-((3-methyl-5-oxo-1-phenyl-1H-pyrazol-4(5H)-ylidene)methyl)phenoxy)methyl)-1H-1,2,3-triazol-1-yl)acetamide] | > 200 µM | – | – | – | – | IC50 (SARS-CoV-2 Main protease; unit inferred, read-out: IC50 (numbers printed in the chart of Figure 5)): 200 µM; melting point: 201 to 203 °C |
| CC1=NN(c2ccc(Cl)cc2)C(=O)/C1=C\c1ccc(OCc2cn(-c3ccc(Cl)cc3)nn2)cc1 [6f] | 144 ± 6.9 µM | 1.54 ± 0.089 | 30.2 ± 0.31 | 0.31 | 51.4 ± 3.9 | – |
| O=C(O)c1ccc(/C=C2\C(=O)N(c3ccc(F)cc3)N=C2c2ccccc2)cc1 [compound 8] | – | – | – | – | – | IC50 (SARS-CoV Main protease): 6.8 µM |
| CC(C)(C)c1ccc(N2N=C(c3ccccc3)/C(=C/c3ccc(-c4cc(Cl)ccc4C(=O)O)o3)C2=O)cc1 [compound 10] | – | – | – | – | – | IC50 (SARS-CoV Main protease): 5.8 µM; IC50 [2]: 7.4 µM |
| CC(=O)c1ccc(-n2cc(COc3ccc(/C=C4\C(=O)N(c5ccc(Cl)cc5)N=C4C)cc3)nn2)cc1 [6c] | 81.1 ± 3.9 µM | 4.46 ± 0.034 | 24.5 ± 0.37 | 0.26 | 92.1 ± 7 | – |
| CC1=NN(c2ccc(Cl)cc2)C(=O)/C1=C\c1ccc(OCc2cn(-c3ccc(Cl)c(Cl)c3)nn2)cc1 [6g] | 200 ± 9.5 µM | 12.23 ± 0.05 | 38.74 ± 0.3 | 0.41 | 235 ± 18 | – |
| CC1=NN(c2ccc(Cl)cc2)C(=O)/C1=C\c1ccc(OCc2cn(CC(=O)Nc3ccc(C(=O)O)cc3)nn2)cc1 [6i] | 3.17 µM and 7.55 µM and 3.1 µM and 3.16 µM | 21.86 ± 0.09 | 64 | 0.67 | 22.1 | IC50 (Vero E6 cells): 21.1 ± 1.6 µM |
| CC1=NN(c2ccc(Cl)cc2)C(=O)/C1=C\c1ccc(OCc2cn(-c3ccc([N+](=O)[O-])cc3)nn2)cc1 [6e] | 30.1 ± 1.4 µM | 17.4 ± 0.19 | 49.5 ± 1.01 | 0.53 | 66.4 ± 5.1 | – |
| COc1ccc(CNC(=O)Cn2cc(COc3ccc(/C=C4\C(=O)N(c5ccc(Cl)cc5)N=C4C)cc3)nn2)cc1 [6p, (Z)-2-(4-((4-((1-(4-Chlorophenyl)-3-methyl-5-oxo-1H-pyrazol-4(5H)-ylidene)methyl)phenoxy)methyl)-1H-1,2,3-triazol-1-yl)-N-(4-methoxybenzyl)acetamide] | 23.7 ± 1.1 µM | 9.5 ± 0.11 | ~50 | 0.54 | 20.1 ± 1.5 | – |
| CC1=NN(c2ccc(Cl)cc2)C(=O)/C1=C\c1ccc(OCc2cn(CC(=O)Nc3ccc(F)cc3)nn2)cc1 [6j, (Z)-2-(4-((4-((1-(4-Chlorophenyl)-3-methyl-5-oxo-1H-pyrazol-4(5H)-ylidene)methyl)phenoxy)methyl)-1H-1,2,3-triazol-1-yl)-N-(4-fluorophenyl)acetamide] | 49.4 ± 2.4 µM | 16.16 ± 0.03 | 39.65 ± 0.25 | 0.46 | 156 ± 12 | – |
| CC1=NN(c2ccc(Cl)cc2)C(=O)/C1=C\c1ccc(OCc2cn(CC(=O)NCc3ccc(Cl)cc3)nn2)cc1 [6n, (Z)-N-(4-Chlorobenzyl)-2-(4-((4-((1-(4-chlorophenyl)-3-methyl-5-oxo-1H-pyrazol-4(5H)-ylidene)methyl)phenoxy)methyl)-1H-1,2,3-triazol-1-yl)acetamide] | 86.6 ± 4.1 µM | 3.73 ± 0.01 | 51.13 ± 0.14 | 0.55 | 23.1 ± 1.8 | – |
| N#Cc1ccc(N2N=C(c3ccccc3)/C(=C/c3ccc(C(=O)O)cc3)C2=O)cc1 [compound 7] | – | – | – | – | – | IC50 (SARS-CoV Main protease): 5.5 µM |
| CC1=NN(c2ccc(Cl)cc2)C(=O)/C1=C\c1ccc(OCc2cn(-c3ccc(C(=O)O)cc3)nn2)cc1 [6a] | 76 µM and 76.9 µM | 10.8 ± 0.06 | 19.3 | 0.21 | 17.1 ± 13 | Anti-SARS-CoV-2 Effect Assay (%) 10 μM (SARS-CoV-2; 10 μM, infected Vero E6 cells, MOI 0.01): 19.27 ± 0.51% |
| Cc1cccc(C)c1OCC(=O)N[C@@H](Cc1ccccc1)[C@@H](O)C[C@H](Cc1ccccc1)NC(=O)[C@H](C(C)C)N1CCCNC1=O [lopinavir, reference compound] | 82.2 µM | – | – | – | – | – |
| O=C(O)c1cccc(N2N=C(c3ccccc3)/C(=C/c3ccc(-c4ccccc4)o3)C2=O)c1 [compound 9] | – | – | – | – | – | IC50 (SARS-CoV Main protease): 6.4 µM; IC50 [2]: 5.8 µM |
| CC1=NN(c2ccc(Cl)cc2)C(=O)/C1=C\c1ccc(OCc2cn(-c3ccc(F)cc3)nn2)cc1 [6d] | 42.4 ± 3.8 µM | 7.38 ± 0.007 | 55.47 ± 0.27 | 0.60 | 172 ± 13 | – |
| CC1=NN(c2ccc(Cl)cc2)C(=O)/C1=C\c1ccc(OCc2cn(CC(=O)Nc3ccc(C)c(F)c3)nn2)cc1 [6m, (Z)-2-(4-((4-((1-(4-Chlorophenyl)-3-methyl-5-oxo-1H-pyrazol-4(5H)-ylidene)methyl)phenoxy)methyl)-1H-1,2,3-triazol-1-yl)-N-(3-fluoro-4-methylphenyl)acetamide] | 25.7 ± 0.4 µM | 9.55 ± 0.02 | ~50 | 0.49 | 189 ± 14 | – |
| CCC(CC)COC(=O)[C@H](C)N[P@](=O)(OC[C@H]1O[C@@](C#N)(c2ccc3c(N)ncnn23)[C@H](O)[C@@H]1O)Oc1ccccc1 [REM, remdesivir, reference compound] | – | – | – | 1.0 | – | inhibition at 1 µM (SARS-CoV-2; Severe acute respiratory syndrome coronavirus 2, Vero C1008, read-out: Anti-SARS-CoV-2 Effect Assay (%) 1 μM): 89.6 ± 0.98%; inhibition at 10 µM (SARS-CoV-2; Severe acute respiratory syndrome coronavirus 2, Vero C1008, read-out: Anti-SARS-CoV-2 Effect Assay (%) 10 μM): 93.3 ± 1.17%; IC50 [1]: 61.8 ± 4.7 µM; cytotoxicity to Vero E6 cells (Vero E6 cells; positive control): no cytotoxicity |
| CC1=NN(c2ccc(Cl)cc2)C(=O)/C1=C\c1ccc(OCc2cn(CC(=O)Nc3ccc([N+](=O)[O-])cc3)nn2)cc1 [6l, (Z)-2-(4-((4-((1-(4-Chlorophenyl)-3-methyl-5-oxo-1H-pyrazol-4(5H)-ylidene)methyl)phenoxy)methyl)-1H-1,2,3-triazol-1-yl)-N-(4-nitrophenyl)acetamide] | 135 ± 6.5 µM | 8.84 ± 0.11 | 46.91 ± 0.28 | – | 32.6 ± 2.5 | – |
| CC1=NN(c2ccc(Cl)cc2)C(=O)/C1=C\c1ccc(OCc2cn(-c3ccc(C)c(F)c3)nn2)cc1 [6h] | 5.08 ± 3.5 µM | 15.5 ± 0.003 | 64.2 | 0.66 | 33.7 ± 2.6 | – |
| CC1=NN(c2ccccc2)C(=O)/C1=C\c1ccc(OCc2cn(-c3ccc(C(=O)O)cc3)nn2)cc1 [6b] | > 200 µM | – | – | – | – | melting point: 205 to 206 °C |
